Laboratory results taken from publication PMC1084334 (PLoS Biology, 2005).
Where two headings read alike, the source gives them in different places. Values belong to the molecule of their own block, whether it stands above or below them.

Tests used:
SynGUN4 [1] = target: T1, SynGUN4 (Synechocystis sp. PCC 6803, UniProt P72583); assay: tryptophan fluorescence quenching; type: binding
T1 construct: gene sll0558; full length, residues 1-233; E. coli BL21(DE3)

SynGUN4 [2] = target: T2, SynGUN4 (Synechocystis sp. PCC 6803, UniProt P72583, A219G); assay: tryptophan fluorescence quenching; type: binding; conditions: read-out: dissociation constant
T2 construct: gene sll0558; full length, residues 1-233; E. coli BL21(DE3)
T2 sequence (P72583 whole entry A219G, the tested form may be a part): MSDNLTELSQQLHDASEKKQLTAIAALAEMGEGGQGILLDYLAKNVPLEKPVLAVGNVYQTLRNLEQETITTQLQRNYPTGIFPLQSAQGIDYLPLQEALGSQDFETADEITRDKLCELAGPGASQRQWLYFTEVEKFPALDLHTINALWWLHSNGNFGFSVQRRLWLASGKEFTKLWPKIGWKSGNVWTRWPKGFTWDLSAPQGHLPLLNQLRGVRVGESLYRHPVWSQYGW
From the text: (§1) tryptophan fluorescence quenching on SynGUN4

SynGUN4 [3] = target: T3, SynGUN4 (Synechocystis sp. PCC 6803, UniProt P72583, L222A); assay: tryptophan fluorescence quenching; type: binding; conditions: read-out: dissociation constant
T3 construct: gene sll0558; full length, residues 1-233; E. coli BL21(DE3)
T3 sequence (P72583 whole entry L222A, the tested form may be a part): as the sequence (P72583 whole entry A219G, the tested form may be a part) above, with G219A, L222A counted along it
From the text: as §1

SynGUN4 [4] = target: T4, SynGUN4 (Synechocystis sp. PCC 6803, UniProt P72583, R113A); assay: tryptophan fluorescence quenching; type: binding; conditions: read-out: dissociation constant
T4 construct: gene sll0558; full length, residues 1-233; E. coli BL21(DE3)
T4 sequence (P72583 whole entry R113A, the tested form may be a part): as the sequence (P72583 whole entry A219G, the tested form may be a part) above, with R113A, G219A counted along it
From the text: as §1

SynGUN4 [5] = target: T5, SynGUN4 (Synechocystis sp. PCC 6803, UniProt P72583, R214A); assay: tryptophan fluorescence quenching; type: binding; conditions: read-out: dissociation constant
T5 construct: gene sll0558; full length, residues 1-233; E. coli BL21(DE3)
T5 sequence (P72583 whole entry R214A, the tested form may be a part): as the sequence (P72583 whole entry A219G, the tested form may be a part) above, with R214A, G219A counted along it
From the text: as §1

[6] = substrate: CC1=C(CCC(=O)O)c2cc3nc(cc4[nH]c(cc4C)cc4[nH]c(cc1n2)cc4C)C(C)=C3CCC(=O)O; assay: Mg-Deutero formation by fluorescence; type: biochemical, Synechocystis sp. PCC 6803; conditions: no SynGUN4, 200 nM ChlH (methods: 0.1 μM ChlH), 20 mM MgCl2, 5 mM ATP, 50 mM MOPS-KOH pH 7.7, 1 mM DTT, 34 °C

T1 sequence (P72583 whole entry, the tested form may be a part): as the sequence (P72583 whole entry A219G, the tested form may be a part) above, with G219A counted along it

Kd (SynGUN4 [1]; 50 mM MOPS-KOH pH 7.7, 150 mM NaCl, 1 mM DTT, one-site fit): 2.67 ± 0.856 µM
Molecule: C=CC1=C(C)C2=NC1=Cc1c(C)c(C=C)c3[n]1[Co+][n]1c(c(C)c(CCC(=O)O)c1=CC1=NC(=C3)C(C)=C1CCC(=O)O)=C2 [Co-Proto]

Kd (SynGUN4 [2]): 1.56 ± 0.459 µM
Kd (SynGUN4 [3]): 6.61 ± 1.02 µM
Kd (SynGUN4 [4]): 7.83 ± 1.99 µM
Kd (SynGUN4 [5]): 10.9 ± 4.06 µM
Kd (SynGUN4 [1]): 0.865 ± 0.146 µM
Molecule: CC1=C(CCC(=O)O)c2cc3nc(cc4[nH]c(cc4C)cc4[nH]c(cc1n2)cc4C)C(C)=C3CCC(=O)O [Deutero]

B1: Synechocystis Mg-chelatase (ChlH, ChlD, ChlI) (Synechocystis sp. PCC 6803 substr. Kazusa) (protein)
chain: MFTNVKSTIRRVDPEALNGRQLLKVVYVVLESQYQSALSAAVRNINRTNSSLAIQLTGYLIEELRDPENYANFKHDVSEANLFIASLIFIEDLADKVVEAVTPYRDNLDAAIVFPSMPQVMRLNKMGSFSMAQLGQSKSAIAQFMKKRKENSSGAGFQDAMLKLLRTLPTVLKYLPVEKAQDARNFMLSFQYWLGGSQENLENFLLMLTDKYVYPDLGLDKLVNYQEPVVYPDMGIWHPLSMQMFENVKDYLEWYNQRPDISEDLKDPLAPCIGLIMQRTHLVTGDDAHYVGMVQELEAMGARVICVFSGGLDFSKPVNEYFWDKSVNGVEPLPIVDAVVSLTGFALVGGPARQDHPRAIESLKKLNRPYMCALPLVFQTTEEWEASDLGLHPIQVALQIAIPELDGAIEPIILSGRDGSTGRAIALQDRLEAIAQRAMKWANLRKKPKLDKKVAITVFSFPPDKGNVGTAAYLDVFGSIYEVMKGLQGNGYDVQDLPGSAKELMEAVIHDAQAQYNSPELNIAHRMSVEQYERLTPYSVRLEENWGKPPGHLNSDGQNLLIYGKEFGNVFIGVQPTFGYEGDPMRLLFSRSASPHHGFAAYYTYLNHIWKADAVLHFGTHGSLEFMPGKQMGMSGECYPDNLIGTIPNLYYYAANNPSEATIAKRRGYASTISYLTPPAENAGLYKGLQELNELIGSYQTLKDSGRGIQIVNTIMDQARICNLDQDVNLPDINAEEMDQGQRDTIVGSVYRKLMEIESRLLPCGLHVIGQPPSAEEAIATLVNIASLDREDEGIWALPTLIAESIGRNMEEIYRNSDKGILADVELLQDITLATRAAVAALVQEQINADGRVSFVSKLNFFKIGKKAPWVKSLCDSGYPNVNEEKLKPLFEYLEFCLEQVCADNEFGGLLQALEGEYVLPGPGGDPIRNPNVLPTGKNIHALDPQSIPTLAAVQSAKVVVDRLLERQRAENGGNYPETIASVLWGTDNIKTYGESLAQIMWMVGAKPVPDALGRVNKIELVPLEELGRPRIDVVVNCSGVFRDLFINQMNLLDQAVKLAAEADEPLEMNFVRKHALEQAEEMGIGVREAATRIFSNASGSYSSNVNLAVENSSWEDESELQEMYLKRKSFAFNSDNPGMMDQNRDMFERALKTADATFQNLDSSEISLTDVSHYFDSDPTKLISTLRDDGKAPAAYIADTTTANAQVRTLSETVRLDARTKLLNPKWYEGMLSHGYEGVRELSKRLVNTMGWSATAGAVDNWVYEDANSTFIKDEEMCKRLMDLNPNSFRRMVSTLLEVNGRGYWETSDENLERLQELYQEVEDRIEGVE
notes: with Magnesium-chelatase subunit ChlD; Magnesium-chelatase subunit ChlI
Km [6]: 7.46 ± 3.24 µM
